Patent US12234245B2, “Sulfonimidamide compounds as inhibitors of interleukin-1 activity” (Genentech, Inc., priority 2018, dated 2025)
Where two headings read alike, the source gives them in different places.

How the values were obtained:
Type in all cases: cell-based
NLRP3 inflammasome [1] = molecular target: T1, NLRP3 inflammasome (Homo sapiens, UniProt Q96P20); test: NLRP3 inflammasome activation assay in PBMCs, IL-1β release (ELISA / HTRF); design: were freshly isolated from human peripheral blood from healthy donors; StemCells Technologies; host or cells: primary human PBMCs, LPS-primed, nigericin-stimulated; settings: LPS primed
T1 sequence (Q96P20 whole entry): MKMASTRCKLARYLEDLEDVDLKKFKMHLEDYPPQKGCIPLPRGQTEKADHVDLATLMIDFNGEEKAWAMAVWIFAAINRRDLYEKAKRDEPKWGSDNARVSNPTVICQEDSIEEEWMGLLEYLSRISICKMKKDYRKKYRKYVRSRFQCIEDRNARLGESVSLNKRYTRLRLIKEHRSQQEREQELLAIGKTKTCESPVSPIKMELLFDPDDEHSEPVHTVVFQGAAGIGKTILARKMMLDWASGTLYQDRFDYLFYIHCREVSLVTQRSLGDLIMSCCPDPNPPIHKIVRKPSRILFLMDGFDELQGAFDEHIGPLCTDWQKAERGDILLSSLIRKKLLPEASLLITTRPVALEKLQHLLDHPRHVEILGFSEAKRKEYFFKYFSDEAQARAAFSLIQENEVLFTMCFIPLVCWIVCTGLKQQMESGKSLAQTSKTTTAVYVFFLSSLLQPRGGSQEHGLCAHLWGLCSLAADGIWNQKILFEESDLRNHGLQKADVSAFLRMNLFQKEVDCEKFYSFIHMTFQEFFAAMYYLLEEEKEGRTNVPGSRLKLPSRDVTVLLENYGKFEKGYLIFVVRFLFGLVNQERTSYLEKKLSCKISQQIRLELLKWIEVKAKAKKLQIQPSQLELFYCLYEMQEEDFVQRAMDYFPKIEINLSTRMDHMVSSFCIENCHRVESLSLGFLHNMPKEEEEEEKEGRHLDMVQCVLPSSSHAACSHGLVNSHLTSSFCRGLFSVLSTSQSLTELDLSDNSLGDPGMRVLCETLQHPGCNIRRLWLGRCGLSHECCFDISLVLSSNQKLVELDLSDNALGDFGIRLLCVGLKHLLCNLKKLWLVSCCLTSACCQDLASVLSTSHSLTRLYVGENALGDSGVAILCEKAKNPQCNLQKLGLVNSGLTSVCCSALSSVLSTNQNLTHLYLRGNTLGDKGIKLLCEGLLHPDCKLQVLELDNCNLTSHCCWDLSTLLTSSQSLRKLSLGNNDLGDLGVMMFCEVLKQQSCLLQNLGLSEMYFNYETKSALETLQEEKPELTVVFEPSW
Protocol: Some of the following assays were used to determine the inhibitory activity of the compounds on the NLRP3 inflammasome using a common inflammasome activation stimuli—nigericin.
(§1) Human peripheral blood mononuclear cells (PBMCs), consisting of lymphocytes (T, B and NK cells), monocytes and dendritic cells, were freshly isolated from human peripheral blood from healthy donors. Cells were obtained through an IRB approved donor program by iXCells Biotechnologies where all the donors were tested for bacterial and viral infections. Cells were purified from peripheral blood using ficoll gradient centrifugation.
(§2) Fresh or cryopreserved PMBCs were seeded in V-bottom 96-well plate at 0.5-1×10^5 cells per well and incubated overnight at 37° C. with 5% CO2 in RPMI 1640 medium with GlutaMAX supplement, 4.5 g/L D-glucose, 10% Fetal Bovine Serum (FBS), […] Sodium Pyruvate, 1% Penicillin/Streptomycin, 10 mM HEPES and 0.05 mM of β-mercaptoethanol. Freshly isolated or cryopreserved KCs cells were seeded in flat-bottom 96-well plates at 0.6-1.5×10^5 cells/well and incubated overnight at 37° C. 5% CO2 in RPMI 1640 Medium with GlutaMAX supplement, FBS, 1% Penicillin/Streptomycin and 10 mM HEPES. The following day, the cells were primed with 100 ng/mL of lipopolysaccharides (LPS; Sigma Aldrich) in FBS-free RPMI 1640 for 3 h. After the priming step, the media was removed and PBMCs were pre-incubated with serial concentrations of test compounds (0.00017-10 uM) or vehicle (DMSO) for 30 min in FBS-free media prior to addition of the NLRP3 activator. Cells were then stimulated with 10 uM Nigericin (Sigma Aldrich; InvivoGen) for 1.5 h. Plates were centrifuged at 1,500 rpm for 3 minutes to pellet cells and supernatant was transferred into new plates for subsequent experiments.
(§3) For ELISA assays cells were seeded into 96-well plates. Post study, supernatants were removed and the levels of mature IL-1β, IL18 and TNFα (Quantikine ELISA, R&D systems) were measured in cell conditioned media by ELISA according to manufacturer's instructions.
Human frozen PBMCs were purchased from StemCells Technologies. Cells were rapidly thawed in 37° C. water bath and resuspended in fresh assay media consisting of RPMI 1640 Medium containing 1% sodium pyruvate, 10 mM HEPES, 2.5 g/L glucose and 55 μM 2-Mercaptoethanol. Cell density was adjusted to 8.1×10^5 cells/mL. Cells were primed by adding lipopolysaccharide (Invivogen Ultrapure lipopolysaccharide from E. coli, tlrl-3pelps) at a final concentration of 100 ng/mL in cell suspension. 37 μL of cell suspension with LPS was seeded per well of a 384 well plate and incubated for 3 hours at 37° C. and 5% CO2. After priming, PBMCs were preincubated with serially diluted test compounds with starting concentration of 40 μM followed by 2-fold dilution for a 20-point curve or vehicle (DMSO) for 30 min in assay media at 37° C. and 5% CO2. Cells were then stimulated with 10 μM nigericin (Invivogen, tlrl-nig-5) for 90 min at 37° C. and 5% CO2 to activate NLRP3 dependent inflammasome pathway and IL-1β release in cell culture supernatant. Cells were centrifuged at 1200 RPM for 1 min and 40 μL of supernatant was transferred into fresh plates and stored at −80° C. until IL-1β analysis.
16 μL of supernatant was added to white 384 well HTRF plates, followed by addition of 4 μL of HTRF cocktail in each well. Plates were quickly centrifuged, sealed and incubated overnight at room temperature. Next day, HTRF signal was read on a Pherastar and ratio of 665/620 was calculated based on manufacturer's protocol to obtain concentration of IL-1β in cell culture supernatant.

PBMCs = test: CTG (CellTiter-Glo) viability assay in PBMCs; settings: LPS and nigericin stimulated
Protocol: as §1, §2
Viability of compound treated cells was measured using CellTiter-Glo® assay (Promega, Madison, Wis.) that measures the ATP content of cells which is proportional to the number of live cells within a well. This is a counter-screen to establish that the reduction of IL-1β levels in LPS and nigericin stimulated and compound treated cells is not due to cytotoxicity, but rather through the inhibition of the inflammasome pathway. Compounds inhibiting NRLP3 inflammasome activation ultimately increase the viability of LPS and nigericin stimulated cells by blocking NLRP3 mediated pyroptosis that would otherwise lead to cell lysis.

TNFα = TNFα counter-screen in LPS and nigericin stimulated PBMCs; settings: human PBMCs
Protocol: as §1, §2, §3
TNFα levels of LPS and nigericin stimulated cells were measured by HTRF assay (Cisbio, Bedford, MA). […] Measuring TNFalpha production also serves as a technical counter-screen to eliminate compounds that interfere with the HTRF reagents. Thus compounds that inhibit both IL-1β and TNFα levels are triaged for either being non-selective for inflammasome or interfering with the HTRF readout.

NLRP3 inflammasome [2] = molecular target: T1, NLRP3 inflammasome; test: THP-1 ASC-GFP speck assay; design: host or cells: THP-1 ASC-GFP cells, PMA-differentiated, LPS-primed, nigericin-stimulated; settings: THP-1 ASC-GFP cells, PMA differentiated, LPS primed, 10 μM nigericin; read-out: THP1 ASC Speck IC50
Outline: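 PMA-differentiated (500 ng/ml, overnight) THP-1 ASC-GFP cells primed with 1 μg/mL LPS for 3 h, preincubated 30 min with compound (top 40 μM, 2-fold, 20 points), then stimulated with 10 μM nigericin for 90 min at 37 °C. After fixation and Hoechst staining, imaging gave the percentage of cells bearing a GFP ASC speck.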

[3] = 10 μM nigericin, read-out: PBMC IL-1β IC50
[4] = 10 uM nigericin, read-out: PBMC IL-1 β IC50
[5] = PBMC, read-out: PBMC TNF α IC50
[6] = human PBMCs, read-out: PBMC CTG IC50

SMILES	IC50 (NLRP3 inflammasome [1]; [3]) [nM]	IC50 (PBMCs; Homo sapiens, PBMC) [nM]	IC50 (NLRP3 inflammasome [1]; [4]) [nM]	IC50 (PBMCs; [6]) [nM]	further results
CN[C@@H]1COc2c(S(N)(=O)=NC(=O)Nc3c4c(cc5c3CCC5)CCC4)cnn2C1 (mixture of isomers) [Example 17, (6S)—N′-((1,2,3,5,6,7-hexahydro-s-indacen-4-yl)carbamoyl)-6-(methylamino)-6,7-dihydro-5H-pyrazolo[5,1-b][1,3]oxazine-3-sulfonimidamide]	19	8			IC50 (TNFα; PBMC): > 10000 nM
CN[C@@H]1COc2c(S(=N)(=O)NC(=O)Nc3c(C(C)C)cc(F)cc3C(C)C)cnn2C1 (some centres unmarked)		100 to 1000	100 to 1000		IC50 (TNFα; [5]): > 10000 nM
Cn1ccc(S(=N)(=O)NC(=O)Nc2c3c(cc4c2CCC4)CCC3)n1 (centres unmarked)		< 100	1000 to 10000		IC50 (TNFα; [5]): > 10000 nM
CN[C@@H]1COc2c(S(N)(=O)=NC(=O)Nc3c(C(C)C)cc(F)cc3C(C)C)cnn2C1 (mixture of isomers) [Example 16, (6S)—N′-((4-fluoro-2,6-diisopropylphenyl)carbamoyl)-6-(methylamino)-6,7-dihydro-5H-pyrazolo[5,1-b][1,3]oxazine-3-sulfonimidamide]	270	131			IC50 (TNFα; PBMC): > 10000 nM
CO[C@@H]1COc2c(S(=N)(=O)NC(=O)Nc3c4c(c(F)c5c3CCC5)CCC4)cnn2C1 (some centres unmarked) [drawing 666]		< 100	< 100		IC50 (TNFα; [5]): > 10000 nM
CO[C@@H]1COc2c(S(=N)(=O)NC(=O)Nc3c(C(C)C)cc(F)cc3C(C)C)cnn2C1 (some centres unmarked) [drawing 671]			1000 to 10000	< 100	IC50 (TNFα; read-out: PBMC TNF α IC50): > 10000 nM
N=S(=O)(NC(=O)Nc1c2c(c(F)c3c1CCC3)CCC2)c1cnn2c1OCCC2 (single isomer, unassigned) [drawing 670]			1000 to 10000	100 to 1000	IC50 (TNFα; read-out: PBMC TNF α IC50): > 10000 nM
CO[C@@H]1COc2c(S(=N)(=O)NC(=O)Nc3c4c(c(F)c5c3CCC5)CCC4)cnn2C1 (some centres unmarked) [drawing 680]			< 100	< 100	IC50 (TNFα; read-out: PBMC TNF α IC50): > 10000 nM
CNC1COc2c(S(N)(=O)=NC(=O)Nc3c(C(C)C)cc(F)cc3C(C)C)cnn2C1 (single isomer, unassigned) [Example 28]	> 10000				IC50 (NLRP3 inflammasome [2]): 4400 nM; IC50 (TNFα; read-out: PBMC TNFα IC50): > 10000 nM
COC1COc2c(S(N)(=O)=NC(=O)Nc3c(C(C)C)cc(F)cc3C(C)C)cnn2C1 (single isomer, unassigned) [Example 23]	8820			39	IC50 (TNFα; PBMC): > 10000 nM
CO[C@@H]1COc2c(S(=N)(=O)NC(=O)Nc3c(C(C)C)cc(F)cc3C(C)C)cnn2C1 (some centres unmarked) [drawing 663]		< 100	100 to 1000		IC50 (TNFα; [5]): > 10000 nM
COC1COc2c(S(N)(=O)=NC(=O)Nc3c(C(C)C)cc(F)cc3C(C)C)cnn2C1 (single isomer, unassigned) [Example 24]	240			127	IC50 (TNFα; read-out: PBMC TNFα IC50): > 10000 nM
NS(=O)(=NC(=O)Nc1c2c(c(F)c3c1CCC3)CCC2)c1cnn2c1OCCC2 (single isomer, unassigned) [Example 21]	4720			1050	IC50 (TNFα; PBMC): > 10000 nM
CN[C@@H]1COc2c(S(=N)(=O)NC(=O)Nc3c(C(C)C)cc(F)cc3C(C)C)cnn2C1 (single isomer, unassigned) [drawing 676]			> 10000		IC50 (TNFα; read-out: PBMC TNF α IC50): > 10000 nM
